The results in this text go back to patent US12109184B2, “Personalized methods of treating cancer” (CANCER RESEARCH TECHNOLOGY LIMITED, priority 2020, dated 2024).

The structures appear in SMILES notation. Entries after “also recorded” stand apart in the source; their conditions may differ.

Experiment [1] has as its system HCT116, SW480, MDA-MB-231, and MIAPaCa-2 cells. To be noted: exogenous GSH 5 mM. How it is done: HCT116, SW480, MDA-MB-468, MDA-MB-231, AsPC-1, BxPC-3, CFPAC-1, MIAPaCa-2, PANC-1, Panc10.05, SW1990, U-251, LN-18, LN-229, T98G, U-343, A-172 cells were used. Cell lines were authenticated using Short Tandem Repeat (STR) profiling and tested for mycoplasma. Colorectal and breast cancer cell lines were grown in Dulbecco's Modified Eagle Medium (DMEM), pancreatic ductal adenocarcinoma (PDAC) cell lines were grown in Roswell Park Memorial institute (RPMI) 1640. All cell lines were supplemented with penicillin-streptomycin, amphotericin, 2 mM L-glutamine, and 10% fetal bovine serum (FBS). Cells were kept at 37° C. in 5% CO2 in a humidified cell culture incubator. A formulated medium lacking cysteine, cystine, methionine, and serine was used as a base for creating experimental media. The base medium formulation contained 0.2 mM L-histidine, 0.4 mM L-isoleucine, 0.4 mM L-leucine, 0.4 mM L-lysine, 0.2 mM L-phenylalanine, 0.4 mM L-threonine, 0.08 mM L-tryptophan, 0.4 mM L-valine, 0.2 mM L-arginine, 2 mM L-glutamine, 0.2 mM L-tyrosine, 0.4 mM L-alanine, 0.3 mM L-proline, 0.15 mM L-glutamic acid, 0.1 mM L-aspartic acid, 0.2 mM L-asparagine, and 0.4 mM glycine. […]
Cells were seeded at 6×10^4 cells per well into 24-well plates (triplicate wells per condition) in the relevant complete medium and adhered for a full 24-hour period. […] DAPI-stained cell nuclei were detected via microscopy. […]

For the next experiment, the system named is MDA-MB-231 cells. Description: Steady state metabolite measurements by LC-MS. Format: cell-based. How it is done: Metabolomics experiments were performed as follows. Cells were seeded into 6-well plates (5×10^5-1.5×10^6 cells/mL, depending on time-course, triplicate wells per condition) in complete medium and adhered overnight. Cells were washed with PBS, and the relevant experimental media were added for the stated times. Duplicate wells were used for cell counting. Cell counts were used to normalize the volume of lysis solvent prior to metabolite extractions (2×10^6 cells/mL). Cells were washed quickly in PBS, then ice-cold lysis solvent (methanol 50%, acetonitrile 30%, water 20%) was added, and cells were scraped on ice. Lysates were transferred to 1.5 mL tubes on ice, vortexed, then spun by centrifugation at 15,000 rpm at 4° C. for 10 minutes. Supernatants were collected and stored at -80° C. for LC-MS analysis. Prepared samples were analyzed on an LC-MS platform consisting of an […] system and an ExactiveTM mass spectrometer. A Sequant® ZIC®-HILIC column (4.6 mm×150 mm, 3.5 μm) was used to separate the metabolites with the mobile phase using A=0.1% (v/v) formic acid in water and B=0.1% (v/v) formic acid in acetonitrile. A gradient program starting at 20% of A and linearly increasing to 80% at 30 min was used followed by washing (92% of A for 5 mins) and re-equilibration (20% of A for 10 min) steps. The total run time of the method was 45 min. The LC stream was desolvated and ionized in the HESI probe. The ExactiveTM mass spectrometer was operated in full scan mode over a mass range of 70-1,200 m/z at a resolution of 50,000 with polarity switching. The LC-MS raw data was converted into mzML files by using ProteoWizard and imported to MZMine 2.10 for peak extraction and sample alignment. An in-house database including all possible ^13C and ^15N isotopic m/z values of the relevant metabolites was used for the assignment of LCMS signals. Finally the peak areas were used for comparative quantification.

Experiment [2] concerns breast, colorectal and pancreatic cancer cell lines. Description: Cell counting in complete or cysteine-free medium, cell lines not given. Format: cell-based. Particulars: supplementation during cysteine starvation. The protocol:
The base medium formulation contained 0.2 mM L-histidine, 0.4 mM L-isoleucine, 0.4 mM L-leucine, 0.4 mM L-lysine, 0.2 mM L-phenylalanine, 0.4 mM L-threonine, 0.08 mM L-tryptophan, 0.4 mM L-valine, 0.2 mM L-arginine, 2 mM L-glutamine, 0.2 mM L-tyrosine, 0.4 mM L-alanine, 0.3 mM L-proline, 0.15 mM L-glutamic acid, 0.1 mM L-aspartic acid, 0.2 mM L-asparagine, and 0.4 mM glycine.
DAPI-stained cell nuclei were detected via microscopy.
AMD1 inhibitor sardomozide/SAM486A, GPX4 inhibitor RSL3, and CSE inhibitor beta-cyano-L-alanine were used.
For experiments using spermine oxidase (SMOX) and polyamine oxidase (PAOX) inhibitors or MTOB, cells were pre-treated with stated concentrations for 16 hours in complete medium. After pre-treatment, cells were washed in PBS, and treatment was continued in complete or cysteine-free medium for stated times. After treatment was finished, cells were fixed and stained as described above. For experiments using MTA, polyamines, GPX4 and CSE inhibitors, treatment started at the same time as cysteine starvation. For experiments involving hypoxic conditions, cells were seeded in normoxic conditions and allowed to adhere for 24 hours before control and cysteine starvation medium was added and cells were immediately transferred either to a humidified cell culture incubator set to 37° C. in 20% O2 (normoxia), or a hypoxia chamber set to 37° C. in 1% O2 (hypoxia) for the stated times. Cells were fixed immediately and stained as described above.

For experiment [3], the system named is SW480 and MDA-MB-231 cells. Description: Cell counting, rescue by cysteine precursors during cysteine starvation. In kind it is cell-based. How it is done:
HCT116, SW480, MDA-MB-468, MDA-MB-231, AsPC-1, BxPC-3, CFPAC-1, MIAPaCa-2, PANC-1, Panc10.05, SW1990, U-251, LN-18, LN-229, T98G, U-343, A-172 cells were used. Cell lines were authenticated using Short Tandem Repeat (STR) profiling and tested for mycoplasma. Colorectal and breast cancer cell lines were grown in Dulbecco's Modified Eagle Medium (DMEM), pancreatic ductal adenocarcinoma (PDAC) cell lines were grown in Roswell Park Memorial institute (RPMI) 1640. All cell lines were supplemented with penicillin-streptomycin, amphotericin, 2 mM L-glutamine, and 10% fetal bovine serum (FBS). Cells were kept at 37° C. in 5% CO2 in a humidified cell culture incubator. A formulated medium lacking cysteine, cystine, methionine, and serine was used as a base for creating experimental media. The base medium formulation contained 0.2 mM L-histidine, 0.4 mM L-isoleucine, 0.4 mM L-leucine, 0.4 mM L-lysine, 0.2 mM L-phenylalanine, 0.4 mM L-threonine, 0.08 mM L-tryptophan, 0.4 mM L-valine, 0.2 mM L-arginine, 2 mM L-glutamine, 0.2 mM L-tyrosine, 0.4 mM L-alanine, 0.3 mM L-proline, 0.15 mM L-glutamic acid, 0.1 mM L-aspartic acid, 0.2 mM L-asparagine, and 0.4 mM glycine. The base medium was supplemented with 10% dialyzed FBS, penicillin-streptomycin, and amphotericin. To ensure an adequate supply of vitamin B6 (a crucial co-factor for de novo cysteine synthesis), base medium was supplemented with additional 20 μM vitamin B6. The control experimental medium was the base medium supplemented with 0.4 mM L-cysteine, 0.2 mM L-methionine, and 0.4 mM L-serine. The cysteine starvation (−Cys) experimental medium was base medium supplemented with 0.2 mM L-methionine and 0.4 mM L-serine.
Cells were seeded at 6×10^4 cells per well into 24-well plates (triplicate wells per condition) in the relevant complete medium and adhered for a full 24-hour period. A ‘time-0’ plate was included to record the starting cell number to calculate relative cell numbers. Cells were washed once with phosphate-buffered saline (PBS) before receiving experimental medium containing or lacking the specified amino acids, metabolites, or drugs. At the stated time-points the medium was removed, cells were fixed in a 4% formalin-PBS solution. Cells were then washed and stored in PBS before staining with 4′,6-diamidino-2-phenylindole (DAPI)-Triton™ X100-PBS solution for 1 hour, followed by storage in PBS at 4° C. until further analysis. DAPI-stained cell nuclei were detected via microscopy.
Homocysteine, cystathionine, glutathione, putrescine, spermine, spermidine, GPX4 inhibitor ML210, SMOX inhibitor MDL 72527, PAOX inhibitor diminazene aceturate, ferrostatin-1 and erastin were used. AMD1 inhibitor sardomozide/SAM486A, GPX4 inhibitor RSL3, and CSE inhibitor beta-cyano-L-alanine were used. […]

The test system of experiment [4] is HCT116, SW480, MDA-MB-231 and MDA-MB-468 cells. Description: Western blot of transsulfuration pathway enzyme expression. Format: cell-based. Particulars: medium lacking cysteine with 0.8 mM homocysteine, 24 hr. From the text:
Protein was extracted from whole cells by lysis in RIPA buffer supplemented with a protease and […] cocktail. Lysates were cleared using centrifugation, resolved on 4-12% bis-tris pre-cast gels, and transferred to nitrocellulose membranes. Primary antibodies used were MTAP, AMD1, ODC1, GPX4, AHCY, CBS, CSE, and actin as a loading control on the same blots. Secondary antibodies used were IRDye800CW anti-mouse, IRDye680RD anti-mouse, IRDye800CW anti-rabbit, and IRDye680RD anti-rabbit. Protein bands were detected and quantified using an infrared scanner and imaging software.
On the technique in general: Immunoblotting shows a protein as a band on a membrane.

[5] abbreviates: medium lacking cysteine with 5 mM glutathione.
Where [6] appears, read: medium lacking cysteine, supplement 0.2 mM.

As to `N[C@@H](CCC(=O)N[C@@H](CS)C(=O)NCC(=O)O)C(=O)O` [GSH, glutathione], in experiment [1], the “cell death and proliferation during cysteine starvation” value is “prevented cell death and restored proliferation”. For the same molecule, in the experiment on MDA-MB-231 cells (setting [5]), the “intracellular GSH levels” value is on record as “fully restored”; the “intracellular cysteine and γ-glutamylcysteine levels” value is recorded as “partial rescue”.

Regarding `N[C@@H](CCS)C(=O)O` [homocysteine], the “rescue from cysteine starvation-induced cell death (summary in discussion)” value in experiment [2] is “rescued from starvation-induced cell death; also recorded: able to rescue cells from cysteine starvation”. For the same molecule, the “rescue of survival/proliferation during cysteine starvation” value in experiment [3] (supplement at 0.2 mM) is recorded as “substantial rescue”. Moreover, the “restoration of proliferation during cysteine starvation” value in experiment [3] (supplement at 0.8 mM) is “further able to restore proliferation; also recorded: restored proliferation and increased cell survival”. Also, in the experiment on MDA-MB-231 cells (setting [6]), the intracellular cysteine levels result is “moderate increases”; the “intracellular homocysteine and cystathionine levels” value is “significantly increased”; the “intracellular γ-glutamylcysteine and GSH levels” value was “more marked increases”. In addition, in the experiment with MDA-MB-231 cells (medium lacking cysteine, supplement 0.8 mM, 8 h), the intracellular cysteine levels result is reported as “significant increase”. In addition, in experiment [4], the “transsulfuration pathway enzyme expression beyond starvation alone” value is on record as “little impact”.
